In patent US10428051B2 (priority 2015, dated 2019):

Each compound was assayed against human σ1 receptor (Homo sapiens, UniProt Q99720) (assay: biochemical).
Type: binding
Set-up: μ and σ1 dual (binding to the σ1 receptor and the μ-opioid receptor expressed as Ki): key to the marks not given beside the values

Sequence of human σ1 receptor (Q99720 whole entry): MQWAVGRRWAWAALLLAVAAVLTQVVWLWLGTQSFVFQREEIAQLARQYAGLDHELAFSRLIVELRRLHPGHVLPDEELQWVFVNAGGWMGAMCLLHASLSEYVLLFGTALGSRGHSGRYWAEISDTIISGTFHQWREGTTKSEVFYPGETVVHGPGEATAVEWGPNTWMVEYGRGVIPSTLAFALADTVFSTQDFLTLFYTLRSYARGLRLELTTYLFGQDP

Row | Compound | Ki [nM] | μ and σ1 dual (binding to the σ1 receptor and the μ-opioid receptor expressed as Ki)
1 | CCC(=O)N(CC1(N2CCN(Cc3ccccc3)CC2)CCOCC1)c1ncccc1C(F)(F)F [Example 59, N-((4-(4-benzylpiperazin-1-yl)tetrahydro-2H-pyran-4-yl)methyl)-N-(3-(trifluoromethyl)pyridin-2-yl)propionamide] | < 500 | 
2 | CCC(=O)N(CC1(N2CCN(Cc3ccccc3)CC2)CCOCC1)c1nc(C(F)(F)F)ccc1C#N [Example 60, N-((4-(4-benzylpiperazin-1-yl)tetrahydro-2H-pyran-4-yl)methyl)-N-(3-cyano-6-(trifluoromethyl)pyridin-2-yl)propionamide] | < 500 | 
3 | CCC(=O)N(CC1(N2CCN(Cc3ccccc3)CC2)CCOCC1)c1ccc(F)c(C#N)n1 [Example 61, N-((4-(4-benzylpiperazin-1-yl)tetrahydro-2H-pyran-4-yl)methyl)-N-(6-cyano-5-fluoropyridin-2-yl)propionamide] | < 500 | 
4 | CCC(=O)N(CC1(N2CCN(CC(C)C)CC2)CCOCC1)c1ncccc1C#N [Example 62, N-(3-cyanopyridin-2-yl)-N-((4-(4-isobutylpiperazin-1-yl)tetrahydro-2H-pyran-4-yl)methyl)propionamide] |  | ++
5 | CCC(=O)N(CC1(N2CCN(CC(C)C)CC2)CCOCC1)c1ncccc1C(F)(F)F [Example 63, N-((4-(4-isobutylpiperazin-1-yl)tetrahydro-2H-pyran-4-yl)methyl)-N-(3-(trifluoromethyl)pyridin-2-yl)propionamide] |  | ++
6 | CCC(=O)N(CC1(N2CCN(Cc3ccccc3)CC2)CCOC(C)(C)C1)c1ncccc1F (centres unmarked) [Example 64, N-((4-(4-benzylpiperazin-1-yl)-2,2-dimethyltetrahydro-2H-pyran-4-yl)methyl)-N-(3-fluoropyridin-2-yl)propionamide] | < 500 | 
7 | CCC(=O)N(CC1(N2CCN(Cc3ccccc3)CC2)CCOC(C)(C)C1)c1cccc(C#N)n1 (centres unmarked) [Example 65, N-((4-(4-benzylpiperazin-1-yl)-2,2-dimethyltetrahydro-2H-pyran-4-yl)methyl)-N-(6-cyanopyridin-2-yl)propionamide] | < 500 | 
8 | CCC(=O)N(CC1(N2CCN(Cc3ccccc3)CC2)CCOC(C)(C)C1)c1ncccc1C(F)(F)F (centres unmarked) [Example 67, N-((4-(4-benzylpiperazin-1-yl)-2,2-dimethyltetrahydro-2H-pyran-4-yl)methyl)-N-(3-(trifluoromethyl)pyridin-2-yl)propionamide] | < 500 | 
9 | CCC(=O)N(CC1(N2CCN(Cc3ccccc3)CC2)CCOC(C)(C)C1)c1ncccc1C#N (centres unmarked) [Example 68, N-((4-(4-benzylpiperazin-1-yl)-2,2-dimethyltetrahydro-2H-pyran-4-yl)methyl)-N-(3-cyanopyridin-2-yl)propionamide] |  | ++
10 | CCC(=O)N(CC(C)(C)N1CCN(CCc2ccccc2F)CC1)c1ncccc1F [Example 69, N-(2-(4-(2-fluorophenethyl)piperazin-1-yl)-2-methylpropyl)-N-(3-fluoropyridin-2-yl)propionamide] |  | ++
11 | CCC(=O)N(CC(C)(C)N1CCN(CCc2ncccc2F)CC1)c1ccccn1 [Example 70, N-(2-(4-(2-(3-fluoropyridin-2-yl)ethyl)piperazin-1-yl)-2-methylpropyl)-N-(pyridin-2-yl)propionamide] |  | ++
12 | CCC(=O)N(CC(C)(C)N1CCN(CCc2ncccc2F)CC1)c1ccccc1F [Example 71, N-(2-fluorophenyl)-N-(2-(4-(2-(3-fluoropyridin-2-yl)ethyl)piperazin-1-yl)-2-methylpropyl)propionamide] |  | ++
13 | CCC(=O)N(CC(C)(C)N1CCN(CCc2ncccc2F)CC1)c1ccccc1 [Example 72, N-(2-(4-(2-(3-fluoropyridin-2-yl)ethyl)piperazin-1-yl)-2-methylpropyl)-N-phenylpropionamide] |  | ++
14 | CCC(=O)N(CC(C)(C)N1CCN(CCOC(C)C)CC1)c1ncccc1F [Example 73, N-(3-fluoropyridin-2-yl)-N-(2-(4-(2-isopropoxyethyl)piperazin-1-yl)-2-methylpropyl)propionamide] |  | ++
15 | CCC(=O)N(CC(C)(C)N1CCN(CC(C)C)CC1)c1ncccc1F [Example 74, N-(3-fluoropyridin-2-yl)-N-(2-(4-isobutylpiperazin-1-yl)-2-methylpropyl)propionamide] |  | ++
16 | CCC(=O)N(CC1(N2CCN(Cc3ccccc3)CC2)CC1)c1cccnc1C(F)(F)F [Example 76, N-((1-(4-benzylpiperazin-1-yl)cyclopropyl)methyl)-N-(2-(trifluoromethyl)pyridin-3-yl)propionamide] | < 500 | 
17 | CCC(=O)N(CC1(N2CCN(Cc3ccccc3)CC2)CC1)c1cnccc1C(F)(F)F [Example 78, N-((1-(4-benzylpiperazin-1-yl)cyclopropyl)methyl)-N-(4-(trifluoromethyl)pyridin-3-yl)propionamide] | < 500 | 
18 | CCC(=O)N(CC1(N2CCN(Cc3ccccc3)CC2)CC1)c1ncccc1C#N [Example 80, N-((1-(4-benzylpiperazin-1-yl)cyclopropyl)methyl)-N-(3-cyanopyridin-2-yl)propionamide] | < 500 | 

Row | Compound | Ki [nM] | μ and σ1 dual (binding to the σ1 receptor and the μ-opioid receptor expressed as Ki)
19 | CCC(=O)N(CC1(N2CCN(Cc3ccccc3)CC2)CCOCC1)c1ccc(F)cc1 [Example 81, N-((4-(4-benzylpiperazin-1-yl)tetrahydro-2H-pyran-4-yl)methyl)-N-(4-fluorophenyl)propionamide] | < 500 | 
20 | CCC(=O)N(CC1(N2CCN(Cc3ccccc3)CC2)CCOCC1)c1ncccc1F [Example 82, N-((4-(4-benzylpiperazin-1-yl)tetrahydro-2H-pyran-4-yl)methyl)-N-(3-fluoropyridin-2-yl)propionamide] | < 100 | 
21 | CCC(=O)N(CC1(N2CCN(Cc3ccccc3)CC2)CCOCC1)c1cccc(C#N)n1 [Example 84, N-((4-(4-benzylpiperazin-1-yl)tetrahydro-2H-pyran-4-yl)methyl)-N-(6-cyanopyridin-2-yl)propionamide] | < 500 | 
22 | CCC(=O)N(CC1(N2CCN(CC(C)C)CC2)CCOCC1)c1cccc(C#N)n1 [Example 85, N-(6-cyanopyridin-2-yl)-N-((4-(4-isobutylpiperazin-1-yl)tetrahydro-2H-pyran-4-yl)methyl)propionamide] | > 500 | 
23 | CCC(=O)N(CC1(N2CCN(CCC(C)C)CC2)CCOCC1)c1cccc(C#N)n1 [Example 86, N-(6-cyanopyridin-2-yl)-N-((4-(4-isopentylpiperazin-1-yl)tetrahydro-2H-pyran-4-yl)methyl)propionamide] | < 500 | 
24 | CCC(=O)N(CC1(N2CCN(CC(C)C)CC2)CCOC(C)(C)C1)c1cccc(C#N)n1 (centres unmarked) [Example 87, N-(6-cyanopyridin-2-yl)-N-((4-(4-isobutylpiperazin-1-yl)-2,2-dimethyltetrahydro-2H-pyran-4-yl)methyl)propionamide] | > 500 | 
25 | CCC(=O)N(CC1(N2CCN(CCC(C)C)CC2)CCOC(C)(C)C1)c1cccc(C#N)n1 (centres unmarked) [Example 88, N-(6-cyanopyridin-2-yl)-N-((4-(4-isopentylpiperazin-1-yl)-2,2-dimethyltetrahydro-2H-pyran-4-yl)methyl)propionamide] |  | ++
26 | CCC(=O)N(CC1(N2CCN(Cc3ccccc3)CC2)CCOC2(CCCC2)C1)c1cccc(C(F)(F)F)n1 (centres unmarked) [Example 89, N-((9-(4-benzylpiperazin-1-yl)-6-oxaspiro[4.5]decan-9-yl)methyl)-N-(6-(trifluoromethyl)pyridin-2-yl)propionamide] | < 100 | 
27 | CCC(=O)N(CC1(N2CCN(Cc3ccccc3)CC2)CC1)c1nccs1 [Example 92, N-((1-(4-benzylpiperazin-1-yl)cyclopropyl)methyl)-N-(thiazol-2-yl)propionamide] | < 500 | 
28 | CCC(=O)N(CC1(N2CCN(Cc3ccccc3)CC2)CC1)c1cncc(F)c1 [Example 93, N-((1-(4-benzylpiperazin-1-yl)cyclopropyl)methyl)-N-(5-fluoropyridin-3-yl)propionamide] | < 500 | 
29 | CCC(=O)N(CC1(N2CCN(Cc3ccccc3)CC2)CC1)c1ccc(C(F)(F)F)cn1 [Example 94, N-((1-(4-benzylpiperazin-1-yl)cyclopropyl)methyl)-N-(5-(trifluoromethyl)pyridin-2-yl)propionamide] |  | ++
30 | CCC(=O)N(CC1(N2CCN(Cc3ccccc3)CC2)CC1)c1cccc(C#N)c1 [Example 96, N-((1-(4-benzylpiperazin-1-yl)cyclopropyl)methyl)-N-(3-cyanophenyl)propionamide] | < 500 | 
31 | CCC(=O)N(CC1(N2CCN(Cc3ccccc3)CC2)CC1)c1cccc(C#N)n1 [Example 97, N-((1-(4-benzylpiperazin-1-yl)cyclopropyl)methyl)-N-(6-cyanopyridin-2-yl)propionamide] | < 500 | 
32 | CCC(=O)N(CC)CC1(N2CCN(Cc3ccccc3)CC2)CCOCC1 [Example 99, N-((4-(4-benzylpiperazin-1-yl)tetrahydro-2H-pyran-4-yl)methyl)-N-ethylpropionamide] |  | ++
33 | CCC(=O)N(CC1(N2CCN(Cc3cccc(F)c3)CC2)CCOCC1)c1ccccc1 [Example 100, N-((4-(4-(3-fluorobenzyl)piperazin-1-yl)tetrahydro-2H-pyran-4-yl)methyl)-N-phenylpropionamide] | < 100 | 
34 | CCC(=O)N(CC1(N2CCN(Cc3cccnc3)CC2)CCOCC1)c1ccccc1 [Example 101, N-phenyl-N-((4-(4-(pyridin-3-ylmethyl)piperazin-1-yl)tetrahydro-2H-pyran-4-yl)methyl)propionamide] | < 500 | 
35 | CCC(=O)N(CC1(N2CCN(Cc3ccccn3)CC2)CCOCC1)c1ccccc1 [Example 102, N-phenyl-N-((4-(4-(pyridin-2-ylmethyl)piperazin-1-yl)tetrahydro-2H-pyran-4-yl)methyl)propionamide] | > 500 | 
